This note sets out measurements from US20050119304A1, “Urea derivatives” (priority 2001, published 2005).

Broadly, the melting point is the temperature of the solid-liquid transition.

One data set addresses T1, human VR1 (Homo sapiens, UniProt Q8NER1).
T1 construct: The cloned hVR1 cDNA was constructed with pcDNA3 vector and transfected into a CHOluc9aeq cell line; expressed in transfected cells
Nature of the data set: Capsaicin-induced Ca2+ influx in the human VR1-transfected CHO cell line (Assay 1). It is filed as cell-based. An excerpt: [Measurement of Capsaicin-Induced Ca^2+ Influx in the Human VR1-Transfected CHO Cell Line] (Assay 1)
(1) Establishment of the Human VR1-CHOluc9aeq Cell Line
Human vanilloid receptor (hVR1) cDNA was cloned from libraries of axotomized dorsal root ganglia (WO2000/29577). The cloned hVR1 cDNA was constructed with pcDNA3 vector and transfected into a CHOluc9aeq cell line. The cell line contains aequorin and CRE-luciferase reporter genes as read-out signals. The transfectants were cloned by limiting dilution in selection medium (DMEM/F12. medium (Gibco BRL) supplemented with 10% FCS, 1.4 mM Sodium pyruvate, 20 mM HEPES, 0.15% Sodium bicarbonate, 100 U/ml penicillin, 100 μg/ml strept mycin, 2 mM glutamine, non-essential amino acids and 2 mg/ml G418). Ca^2+ influx was examined in the capsaicin-stimulated clones. A high responder clone was selected and used for further experiments in the project. The human VR1-CHOluc9aeq cells were maintained in the selection medium and passaged every 3-4 days at 1-2.5×10^5 cells/flask ([…]).
(2) Measurement of Ca^2+ Influx Using FDSS-3000
Human VR1-CHOluc9aeq cells were suspended in a culture medium which is the same as the selection medium except for G418 and seeded at a density of 1,000 cells per well into 384-well plates (black walled clear-base/Nalge Nunc International). Following the culture for 48 hrs the medium was changed to 2 μM Fluo-3 AM (Molecular Probes) and 0.02% Puronic F-127 in assay buffer (Hank's balanced salt solution (HBSS), 17 mM HEPES (pH7.4), 1 mM Probenecid, 0.1% BSA) and the cells were incubated for 60 min at 25° C. After washing twice with assay buffer the cells were incubated with a test compound or vehicle for 20 min at 25° C. Mobilization of cytoplasmic Ca^2+ was measured by FDSS-3000 (λex=488 nm, λem=540 nm/Hamamatsu Photonics) for 60 sec after the stimulation with 10 nM capsaicin. Integral R was calculated and compared with controls.
The data corresponds to the compounds as yielded by solid phase synthesis and thus to levels of purity of about 40 to 90%.

Read-outs that look alike come from different tables or passages of the source.

T1 sequence (Q8NER1 whole entry): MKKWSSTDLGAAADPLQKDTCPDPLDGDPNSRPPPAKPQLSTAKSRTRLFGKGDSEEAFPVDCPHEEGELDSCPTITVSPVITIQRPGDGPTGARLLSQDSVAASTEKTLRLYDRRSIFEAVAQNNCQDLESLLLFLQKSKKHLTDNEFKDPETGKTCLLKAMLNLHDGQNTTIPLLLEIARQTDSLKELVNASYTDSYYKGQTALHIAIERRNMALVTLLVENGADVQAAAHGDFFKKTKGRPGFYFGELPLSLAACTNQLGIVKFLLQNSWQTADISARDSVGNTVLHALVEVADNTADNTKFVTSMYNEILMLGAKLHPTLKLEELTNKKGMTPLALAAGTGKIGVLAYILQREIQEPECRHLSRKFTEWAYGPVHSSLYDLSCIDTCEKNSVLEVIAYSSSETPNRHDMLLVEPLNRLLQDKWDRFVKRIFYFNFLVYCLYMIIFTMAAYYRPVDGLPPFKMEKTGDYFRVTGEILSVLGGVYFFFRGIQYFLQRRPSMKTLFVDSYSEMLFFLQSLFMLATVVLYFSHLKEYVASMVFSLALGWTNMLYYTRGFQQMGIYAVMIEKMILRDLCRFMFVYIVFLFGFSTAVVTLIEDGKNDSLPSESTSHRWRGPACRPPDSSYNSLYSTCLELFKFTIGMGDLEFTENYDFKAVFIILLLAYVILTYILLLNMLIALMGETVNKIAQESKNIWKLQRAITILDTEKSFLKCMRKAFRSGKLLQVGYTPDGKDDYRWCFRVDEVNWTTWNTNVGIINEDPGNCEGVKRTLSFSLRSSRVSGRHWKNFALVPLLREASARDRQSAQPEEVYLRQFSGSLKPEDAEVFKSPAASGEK

In turn, `O=C(Nc1ccc(Cl)c(C(F)(F)F)c1)Nc1ccc2ncsc2c1` [Example 1, N-(1,3-benzothiazol-6-yl)-N′-[4-chloro-3-(trifluoromethyl)phenyl]urea] returned a melting point of 225 to 228 °C. The IC50 on human VR1 (read-out: Activity grade) was less than 100 nM. As for `O=C(Nc1cccc(-c2ccccc2)c1)Nc1cccc2[nH]ccc12` [Example 2, N-(1,1′-biphenyl-3-yl)-N′-(1H-indol-4-yl)urea], the melting point is 213 to 215 °C. Further, at human VR1 (read-out: Activity grade), the IC50 was less than 100 nM.

Compound `O=C(Nc1ccc(Cl)c(C(F)(F)F)c1)Nc1ccc2[nH]ncc2c1` [Example 3] gave a melting point of more than 250 °C. Further, the IC50 on human VR1 (read-out: hVR1 class) was less than 100 nM. Compound `O=C(Nc1ccc(Cl)c(C(F)(F)F)c1)Nc1cccc2[nH]nnc12` [Example 4] displayed a melting point of 232 to 235 °C. The IC50 at human VR1 (read-out: hVR1 class) was 100 to 500 nM. `O=C(Nc1ccc(Cl)c(C(F)(F)F)c1)Nc1ccc2[nH]ccc2c1` [Example 5] displayed a melting point of 234 to 235 °C. The IC50 on human VR1 (read-out: hVR1 class) lay in the range of 100 to 500 nM. Taken in the same sequence, the figures for `O=C(Nc1ccc(Cl)c(C(F)(F)F)c1)Nc1ccc2cc[nH]c2c1` [Example 6] were 245 to 248 °C and 100 to 500 nM. Taken in the same sequence, the figures for `O=C(Nc1ccc(Cl)c(C(F)(F)F)c1)Nc1cccc2cc[nH]c12` [Example 7] were 229 to 233 °C and less than 100 nM. Consider `O=C(Nc1ccc(Cl)c(C(F)(F)F)c1)Nc1cccc2[nH]ccc12` [Example 8], for which the melting point lay in the range of 230 to 233 °C. The IC50 on human VR1 (read-out: hVR1 class) was less than 100 nM.

The compound `O=C(Nc1ccc(Cl)c(C(F)(F)F)c1)Nc1cccc2[nH]c(C(F)(F)F)nc12` [Example 9] came in with a melting point of 165 to 169 °C. Moreover, the IC50 on human VR1 (read-out: hVR1 class) was less than 100 nM. In turn, `O=C(Nc1ccc(Cl)c(C(F)(F)F)c1)Nc1ccc2[nH]nnc2c1` [Example 10] displayed a melting point of more than 250 °C. For the same compound, the IC50 on human VR1 (read-out: hVR1 class) was in the range of 100 to 500 nM. `O=C(NCc1ccc(Br)cc1)Nc1cccc2cc[nH]c12` [Example 11] registered a melting point of 205 to 208 °C. The IC50 at human VR1 (read-out: hVR1 class) was less than 100 nM. Regarding `O=C(Nc1ccc(Oc2ccccc2)cc1)Nc1cccc2cc[nH]c12` [Example 12], the melting point lay within 216 to 218 °C. Besides, the IC50 on human VR1 (read-out: hVR1 class) was in the range of 100 to 500 nM. Regarding `O=C(Nc1ccc(Cl)c(C(F)(F)F)c1)Nc1ccc2c(c1)S(=O)(=O)C=C2` [Example 13], the IC50 on human VR1 (read-out: hVR1 class) is less than 100 nM. `CSc1nc2ccc(NC(=O)Nc3ccc(Cl)c(C(F)(F)F)c3)cc2s1` [Example 14] returned a melting point of 236 to 238 °C. On human VR1 (read-out: hVR1 class), the IC50 lay in the range of 100 to 500 nM. In turn, `Cc1nc2ccc(NC(=O)Nc3ccc(Cl)c(C(F)(F)F)c3)cc2s1` [Example 15] had a melting point of 234 to 235 °C. Further, the IC50 on human VR1 (read-out: hVR1 class) was in the range of 100 to 500 nM.

Turning to `Cc1nc2cc(NC(=O)Nc3ccc(Cl)c(C(F)(F)F)c3)ccc2s1` [Example 16], the melting point lay in the range of 152 to 155 °C. Further, the IC50 at human VR1 (read-out: hVR1 class) is less than 100 nM.

The compound `O=C(Nc1ccc2c(c1)C(=O)OC2)Nc1ccc(Cl)c(C(F)(F)F)c1` [Example 17] displayed a melting point of more than 250 °C. Further, on human VR1 (read-out: hVR1 class), the IC50 is 100 to 500 nM. In turn, `O=C(Nc1ccc(Cl)c(C(F)(F)F)c1)Nc1ccc2[nH]c(=S)sc2c1` [Example 18] came in with a melting point of more than 250 °C. For the same compound, at human VR1 (read-out: hVR1 class), the IC50 was in the range of 500 to 1000 nM.

The compound `O=C(Cc1ccc(Cl)c(C(F)(F)F)c1)Nc1ccc2cn[nH]c2c1` [Example 19] showed a melting point of more than 250 °C. Also, on human VR1 (read-out: hVR1 class), the IC50 was in the range of 500 to 1000 nM. Take `Cc1cccc(NC(=O)Nc2ccc3sc(C)nc3c2)c1` [Example 20]: the melting point was in the range of 200 to 202 °C. Besides, the IC50 at human VR1 (read-out: hVR1 class) was less than 100 nM.

For the compound `CSc1cccc(NC(=O)Nc2ccc3sc(C)nc3c2)c1` [Example 21], the melting point was 225 to 227 °C. In addition, the IC50 at human VR1 (read-out: hVR1 class) was in the range of 100 to 500 nM. For the compound `Cc1nc2cc(NC(=O)Nc3ccc(F)cc3)ccc2s1` [Example 22], the melting point lay within 241 to 242 °C. Further, on human VR1 (read-out: hVR1 class), the IC50 was less than 100 nM. Taken in the same sequence, the figures for `Cc1nc2cc(NC(=O)Nc3cccc(C(F)(F)F)c3)ccc2s1` [Example 23] were 229 to 231 °C and less than 100 nM. In the case of `COc1cccc(NC(=O)Nc2ccc3sc(C)nc3c2)c1` [Example 24], the melting point is 199 to 201 °C. On human VR1 (read-out: hVR1 class), the IC50 lay in the range of 100 to 500 nM. Taken in the same sequence, the figures for `Cc1nc2cc(NC(=O)Nc3ccc(Oc4ccccc4)cc3)ccc2s1` [Example 25] were 228 to 229 °C and less than 100 nM.

For the compound `Cc1nc2cc(NC(=O)Nc3ccc(Br)cc3)ccc2s1` [Example 26], the melting point is more than 250 °C. In addition, at human VR1 (read-out: hVR1 class), the IC50 was less than 100 nM. `Cc1nc2cc(NC(=O)Nc3ccc4ccccc4c3)ccc2s1` [Example 27]: the melting point was more than 250 °C. Moreover, the IC50 on human VR1 (read-out: hVR1 class) is less than 100 nM. The matching figures for `COc1ccc(NC(=O)Nc2ccc3sc(C)nc3c2)cc1` [Example 28]: 215 to 217 °C and 100 to 500 nM.

On to `Cc1nc2cc(NC(=O)Nc3ccc(Cl)c(Cl)c3)ccc2s1` [Example 29], for which the IC50 at human VR1 (read-out: hVR1 class) was less than 100 nM. Consider `Cc1nc2cc(NC(=O)Nc3ccc(F)cc3F)ccc2s1` [Example 30], for which the melting point fell in the range of 243 to 244 °C. In addition, on human VR1 (read-out: hVR1 class), the IC50 was less than 100 nM. The compound `Cc1nc2cc(NC(=O)Nc3ccc(C)c(Cl)c3)ccc2s1` [Example 31] showed a melting point of 230 to 232 °C. For the same compound, the IC50 on human VR1 (read-out: hVR1 class) was less than 100 nM. Taken in the same sequence, the figures for `Cc1nc2cc(NC(=O)Nc3cc(C(F)(F)F)ccc3Cl)ccc2s1` [Example 32] were 240 to 241 °C and less than 100 nM. Turning to `Cc1cccc(NC(=O)Nc2cccc3[nH]ccc23)c1` [Example 33], the melting point is 237 to 239 °C. Besides, on human VR1 (read-out: hVR1 class), the IC50 was 100 to 500 nM. `CSc1cccc(NC(=O)Nc2cccc3[nH]ccc23)c1` [Example 34] had a melting point of 198 to 201 °C. Also, the IC50 on human VR1 (read-out: hVR1 class) was 100 to 500 nM. The matching figures for `O=C(Nc1ccc(F)cc1)Nc1cccc2[nH]ccc12` [Example 35]: 239 to 241 °C and 100 to 500 nM. As for `COc1cccc(NC(=O)Nc2cccc3[nH]ccc23)c1` [Example 36], the melting point was 219 to 221 °C. Also, the IC50 at human VR1 (read-out: hVR1 class) was 100 to 500 nM.

Compound `O=C(Nc1ccc(Oc2ccccc2)cc1)Nc1cccc2[nH]ccc12` [Example 37] came in with a melting point of 212 to 214 °C. Further, at human VR1 (read-out: hVR1 class), the IC50 was in the range of 100 to 500 nM. As for `Cc1cccc(NC(=O)Nc2ccc3c(c2)S(=O)(=O)C=C3)c1` [Example 38], the melting point was 219 to 222 °C. In addition, on human VR1 (read-out: hVR1 class), the IC50 is 500 to 1000 nM. In turn, `O=C(Nc1cccc(C(F)(F)F)c1)Nc1ccc2c(c1)S(=O)(=O)C=C2` [Example 44] yielded a melting point of more than 250 °C. For the compound `Cc1nc2cc(NC(=O)Nc3cccc(-c4ccc(Cl)cc4)c3)ccc2s1` [Example 47], the IC50 on human VR1 (read-out: hVR1 class) was in the range of 100 to 500 nM. Consider `Cc1cccc(NC(=O)Nc2ccc3[nH]ncc3c2)c1` [Example 103], for which the IC50 on human VR1 (read-out: hVR1 class) fell in the range of 500 to 1000 nM. With `O=C(Nc1ccc(Cl)c(C(F)(F)F)c1)Nc1ccc2[nH]c(C(F)(F)F)nc2c1` [Example 104], at human VR1 (read-out: hVR1 class), the IC50 is 500 to 1000 nM. Same read-out and setting: as for `O=C(NCc1ccc(Br)cc1)Nc1cccc2[nH]c(C(F)(F)F)nc12` [Example 105], the figure is 500 to 1000 nM. With `O=C(Nc1ccc(Oc2ccccc2)cc1)Nc1cccc2[nH]c(C(F)(F)F)nc12` [Example 106], the IC50 at human VR1 (read-out: hVR1 class) was 100 to 500 nM.
